Experiments:
amyloid fibrils = settings: in vitro; Arora et al. (2004); cited from earlier work
[1] = system: chronically inflammable intestinal disease; assay: mouse model for Crohn's disease, oral compatible solutes; type: in vivo; settings: oral ingestion
Text: Moreover, immunological investigations have shown that the TH-2 TH-1 approach typically adopted for the chronically inflammable intestinal disease may to some extent be circumvented by “compatible solutes”. However, the positive effect of “compatible solutes” is not only limited to an alleviation of the symptoms of chronically inflammable intestinal diseases but in addition is characterized by a pronounced preventive potential. […] It is to be assumed that such a preventive effect but also the therapeutic effect is primarily attributable to the anti-inflammatory properties of “compatible solutes” which on the one hand are aimed at the intestinal epithelial cell but also at the helper T lymphocytes deemed to be the cause of the pathogenesis.

amyloid plaques = assay: amyloid plaque formation in mice after oral application; type: in vivo
Text: Unexpectedly, it has now been ascertained from investigations with mice is involving the oral application of compatible solutes ectoine, hydroxyectoine and firoin A that this enabled the formation of amyloid plaques to be reduced. Likewise, through the administration of compatible solutes the occurrence of neuropathologic effects could be reduced. […] It is to be assumed that such a preventive effect but nevertheless the therapeutic effect as well is primarily attributable to the amyloid-inhibiting properties of “compatible solutes”.

Structure (SMILES): CC1=NCCC(C(=O)O)N1 (centres unmarked) [ectoine, 2-methyl-4-carboxy-3,4,5,6-tetrahydropyrimidine]
- formation of protein deposits, so-called amyloid fibrils (amyloid fibrils): inhibit
- course of chronically inflammable intestinal diseases [1]: favorably influenced
- formation of amyloid plaques (amyloid plaques): reduced

Structure (SMILES): NC(=O)[C@H](CO)O[C@@H]1O[C@H](CO)[C@@H](O)[C@H](O)[C@@H]1O [firoin A, mannosylglyceramide]
- formation of amyloid plaques (amyloid plaques): reduced

Structure (SMILES): CC1=NCC(O)C(C(=O)O)N1 (centres unmarked) [hydroxyectoine, 2-methyl-4-carboxy-5-hydroxy-3,4,5,6-tetrahydropyrimidine]
- formation of amyloid plaques (amyloid plaques): reduced
